{"source": "patent US20250134892A1", "about": "“COMBINATION OF COMPOUNDS FOR TREATING VASCULAR DISEASES COMPRISING PDE5 INHIBITOR, ARGININE AND N-ACETYLCYSTEINE” (Future Pharmtech Inc., priority 2022, published 2025)", "key": {"[1]": {"settings": "sildenafil alone, healthy elderly subjects (65 years or older); cited from earlier work"}, "[2]": {"system": "Human umbilical vein endothelial cells (HUVEC)", "assay": "Nitric oxide release amount from endothelial cells (NO assay kit)", "format": "cell-based", "settings": "vascular endothelial cells; for release amount of nitric oxide compared with control group (drug treatment for 0 min): 100 nM sildenafil", "protocol": "Sildenafil, arginine, N-acetylcysteine, and S-nitroso-N-acetylpenicillamine (SNAP) are dissolved and diluted in phosphate buffered saline (PBS). […] The solutions are stored at a temperature of 4° C. […] Human umbilical vein endothelial cells (HUVEC) obtained from Bioresource Collection and Research Center (Hsinchu, Taiwan) were cultured in Ham's F-12K (Sigma-Aldrich) with endothelial cell growth supplement (Millipore), heparin (Sigma-Aldrich), 2.2 mg/mL sodium bicarbonate, and 10% FBS (Gibco). HUVEC at passage 5 to 15 were used in all applications. Human pulmonary artery vascular smooth muscle (PAVSM) cells and growth media were obtained from Lonza Inc. (Walkersville, MD., USA). Cells were grown in a 5% CO2 atmosphere at 37° C. For cell treatments, HUVEC and PAVSM cells were grown in confluence respectively on the upper and lower wells of Transwell® units. Culture medium volume in each upper chamber was 1.5 mL, and in each lower chamber was 2.5 mL. […] All supernatants of HUVEC and PAVSM were collected right after the treatments for the NO amount analysis. HUVEC cells and PAVSM cells were rinsed in ice-cold phosphate buffered saline and then solubilized in ice-cold 6% trichloroacetic acid for the protein extraction. Samples were stored at −80° until the assays. Analysis of Nitric Oxide Release Amount from Endothelial Cells The nitric oxide amount was assessed using the NO assay kit (Promega). After treatment, the supernatants of HUVEC were collected for the NO assay reagent kit, and 200 μL per well was applied according to the manufacturer's instructions. Relative Luminance Unit (RLU) emitted by the product was measured using a microreader."}, "[3]": {"system": "Endothelial nitric oxide synthase (eNOS)", "assay": "Expression amount of endothelial nitric oxide synthase (eNOS assay kit)", "format": "cell-based, Human", "settings": "vascular endothelial cells, treatment 10 min (FIG. 3)", "protocol": "Sildenafil, arginine, N-acetylcysteine, and S-nitroso-N-acetylpenicillamine (SNAP) are dissolved and diluted in phosphate buffered saline (PBS). […] The solutions are stored at a temperature of 4° C. […] Human umbilical vein endothelial cells (HUVEC) obtained from Bioresource Collection and Research Center (Hsinchu, Taiwan) were cultured in Ham's F-12K (Sigma-Aldrich) with endothelial cell growth supplement (Millipore), heparin (Sigma-Aldrich), 2.2 mg/mL sodium bicarbonate, and 10% FBS (Gibco). HUVEC at passage 5 to 15 were used in all applications. Human pulmonary artery vascular smooth muscle (PAVSM) cells and growth media were obtained from Lonza Inc. (Walkersville, MD., USA). Cells were grown in a 5% CO2 atmosphere at 37° C. For cell treatments, HUVEC and PAVSM cells were grown in confluence respectively on the upper and lower wells of Transwell® units. Culture medium volume in each upper chamber was 1.5 mL, and in each lower chamber was 2.5 mL. […] All supernatants of HUVEC and PAVSM were collected right after the treatments for the NO amount analysis. […] Analysis of Expression Amount of Endothelial Nitric Oxide Synthase Endothelial nitric oxide synthase (eNOS) activity was assessed using the eNOS assay kit (Promega). […] Relative Luminance Unit (RLU) emitted by the product was measured using a microreader."}, "[4]": {"system": "Human pulmonary artery vascular smooth muscle (PAVSM) cells", "assay": "cGMP in smooth muscle cells (cGMP immunoassay)", "format": "cell-based", "settings": "for amount of cGMP compared with control group (drug treatment for 0 min): 100 nM sildenafil", "protocol": "Sildenafil, arginine, N-acetylcysteine, and S-nitroso-N-acetylpenicillamine (SNAP) are dissolved and diluted in phosphate buffered saline (PBS). […] The solutions are stored at a temperature of 4° C. […] Human umbilical vein endothelial cells (HUVEC) obtained from Bioresource Collection and Research Center (Hsinchu, Taiwan) were cultured in Ham's F-12K (Sigma-Aldrich) with endothelial cell growth supplement (Millipore), heparin (Sigma-Aldrich), 2.2 mg/mL sodium bicarbonate, and 10% FBS (Gibco). HUVEC at passage 5 to 15 were used in all applications. Human pulmonary artery vascular smooth muscle (PAVSM) cells and growth media were obtained from Lonza Inc. (Walkersville, MD., USA). Cells were grown in a 5% CO2 atmosphere at 37° C. For cell treatments, HUVEC and PAVSM cells were grown in confluence respectively on the upper and lower wells of Transwell® units. Culture medium volume in each upper chamber was 1.5 mL, and in each lower chamber was 2.5 mL. […] All supernatants of HUVEC and PAVSM were collected right after the treatments for the NO amount analysis. HUVEC cells and PAVSM cells were rinsed in ice-cold phosphate buffered saline and then solubilized in ice-cold 6% trichloroacetic acid for the protein extraction. Samples were stored at −80° until the assays. Analysis of cGMP in Smooth Muscle Cells […] Nitric Oxide-Cyclic GMP Signaling Pathway as an Illustrative Example and Derivation of the General Case; PLOS COMPUTATIONAL BIOLOGY, DOI:10.1371/journal.pcbi.1004822 Mar. 17, 2016). cGMP formation was measured by immunoassay according to the cGMP Assay (Cayman Chemical Co., Ann Arbor, MI)."}, "[5]": {"system": "HUVEC", "assay": "Quantitative free radical ROS content (Cm-H2DCFDA)", "format": "cell-based, Human", "settings": "vascular endothelial cells, treatment 10 min (FIG. 6)", "protocol": "(§1) Sildenafil, arginine, N-acetylcysteine, and S-nitroso-N-acetylpenicillamine (SNAP) are dissolved and diluted in phosphate buffered saline (PBS). […] The solutions are stored at a temperature of 4° C.\n(§2) Human umbilical vein endothelial cells (HUVEC) obtained from Bioresource Collection and Research Center (Hsinchu, Taiwan) were cultured in Ham's F-12K (Sigma-Aldrich) with endothelial cell growth supplement (Millipore), heparin (Sigma-Aldrich), 2.2 mg/mL sodium bicarbonate, and 10% FBS (Gibco). HUVEC at passage 5 to 15 were used in all applications. Human pulmonary artery vascular smooth muscle (PAVSM) cells and growth media were obtained from Lonza Inc. (Walkersville, MD., USA). Cells were grown in a 5% CO2 atmosphere at 37° C.\nFor cell treatments, HUVEC and PAVSM cells were grown in confluence respectively on the upper and lower wells of Transwell® units. […]\nDetection Mode of Quantitative Free Radical ROS Content\nROS detection studies were performed using a Cm-H2DCFDA ROS detection kit (Invitrogen, Grand Island, NY, USA). […] ROS generation was measured every 10 min up to 2 h with a micro-reader at 490 nm excitation, 530 nm emission. […] Samples were then measured immediately using a Promega microreader. ROS levels generated by 2.5×10^4 viable treated cells were expressed as the percentage of ROS produced by an equal number of viable negative control cells."}, "[6]": {"system": "HUVEC", "assay": "Vascular fibrosis index: lipid peroxidation (malondialdehyde, MDA)", "format": "cell-based, Human", "settings": "vascular endothelial cells, treatment 10 min (FIG. 7)", "protocol": "as §1, §2\nFor cell treatments, HUVEC and PAVSM cells were grown in confluence respectively on the upper and lower wells of Transwell® units. Culture medium volume in each upper chamber was 1.5 mL, and in each lower chamber was 2.5 mL. […]\nLipid peroxidation in HUVEC protein extracts was quantified measuring the concentration of MDA by a spectrofluorometric assay using an “MDA assay kit” as described by Richard et al., 1992 (Richard et al. 1992). Quantification was achieved by parallel measurements of a standard curve of known MDA concentrations, and results were expressed as level change of the control."}, "[7]": {"system": "erectile dysfunction", "settings": "sildenafil alone, placebo 25%, cited from earlier work"}, "[8]": {"system": "HUVEC", "assay": "Vascular permeability analysis: VEGF-A release content", "format": "cell-based, Human", "settings": "vascular endothelial cells, treatment 10 min (FIG. 8)", "protocol": "as §1, §2\nFor cell treatments, HUVEC and PAVSM cells were grown in confluence respectively on the upper and lower wells of Transwell® units. Culture medium volume in each upper chamber was 1.5 mL, and in each lower chamber was 2.5 mL. Confluent HUVEC cells were treated with regular medium in the presence or absence of S, SS, SN, SSN and SAN for 0, 10, 20, 30 and 60 min. All supernatants of HUVEC and PAVSM were collected right after the treatments for the NO amount analysis. […]\nVEGFA amount was assessed using the VEGFA assay kit (Promega). […] Relative Absorbance Unit at 540 nm emitted by the product was measured using a microreader."}}, "note": "Where two headings read alike, the source gives them in different places.", "data": [{"compound": "CCCc1nn(C)c2c(=O)[nH]c(-c3cc(S(=O)(=O)N4CCN(C)CC4)ccc3OCC)nc12", "note": "[SILD, sildenafil]", "values": [{"measurement": "clearance rate in elderly subjects", "setting": "[1]", "value": "decreased"}, {"measurement": "release amount of nitric oxide compared with control group (drug treatment for 0 min)", "setting": "[2]; treatment 10 min (FIG. 1)", "value": "about 1.6 folds"}, {"measurement": "release amount of nitric oxide compared with control group (drug treatment for 0 min)", "setting": "[2]; treatment 20 min (FIG. 1)", "value": "about 2.6 folds"}, {"measurement": "release amount of nitric oxide compared with control group (drug treatment for 0 min)", "setting": "[2]; treatment 30 min (FIG. 1)", "value": "about 3.1 folds"}, {"measurement": "release amount of nitric oxide compared with control group (drug treatment for 0 min)", "setting": "[2]; treatment 60 min (FIG. 1)", "value": "about 3.5 folds"}, {"measurement": "release amount of nitric oxide compared with control group (with no drug)", "setting": "[2]; 10-min drug treatment (FIG. 2)", "value": "about 1.6 folds"}, {"measurement": "expression amount of nitric oxide synthase compared with control group (with no drug)", "setting": "[3]", "value": "about 2 folds"}, {"measurement": "amount of cGMP compared with control group (drug treatment for 0 min)", "setting": "[4]; treatment 10 min (FIG. 4)", "value": "about 2.6 folds"}, {"measurement": "amount of cGMP compared with control group (drug treatment for 0 min)", "setting": "[4]; treatment 20 min (FIG. 4)", "value": "~3", "unit": "folds"}, {"measurement": "amount of cGMP compared with control group (drug treatment for 0 min)", "setting": "[4]; treatment 30 min (FIG. 4)", "value": "~4.7", "unit": "folds"}, {"measurement": "amount of cGMP compared with control group (drug treatment for 0 min)", "setting": "[4]; treatment 60 min (FIG. 4)", "value": "~5.5", "unit": "folds"}, {"measurement": "amount of cGMP compared with control group (with no drug)", "setting": "[4]; 10-min treatment (FIG. 5)", "value": "about 2.6 folds"}, {"measurement": "amount of ROS compared with control group (with no drug treatment)", "setting": "[5]", "value": "about 2.8 folds"}, {"measurement": "amount of MDA compared with control group (with no drug treatment)", "setting": "[6]", "value": "about 2.8 folds"}, {"measurement": "proportion of disease improvement", "setting": "[7]; 25 mg", "value": 62, "unit": "%"}, {"measurement": "proportion of disease improvement", "setting": "[7]; 50 mg", "value": 74, "unit": "%"}, {"measurement": "proportion of disease improvement", "setting": "[7]; 100 mg", "value": 82, "unit": "%"}, {"measurement": "amount of VEGFA compared with control group (with no drug treatment)", "setting": "[8]", "value": "about 3.9 folds"}]}]}
